Measurements: the NIST ThermoML archive (doi:10.1016/j.jct.2018.02.022)
Numbers after ± are expanded uncertainties.

Assay: xn = mol fraction of the nth substance listed
Conditions: 92.3 kPa, Liquid; for viscosity: Concentric cylinders viscometry; for speed of sound: Frequency=3 MHz, Single path-length method; for mass density: Vibrating tube method

OCCOCCO [diethylene glycol] + O
Conditions | mass density, 293.15 K [kg/m3] | mass density, 298.15 K [kg/m3] | speed of sound, 293.15 K [m/s] | speed of sound, 298.15 K [m/s] | viscosity, 293.15 K [mPa·s] | viscosity, 298.15 K [mPa·s]
x1 = 0.0097 | 1006.17 ± 3.2 | 1004.88 ± 3.2 | 1511.2 ± 1.8 | 1523 ± 1.8 | – | –
x1 = 0.0201 | 1013.77 ± 3.2 | 1012.33 ± 3.2 | 1539.6 ± 1.8 | 1549.1 ± 1.8 | – | –
x1 = 0.0297 | 1020.4 ± 3.2 | 1018.8 ± 3.2 | 1563.6 ± 1.8 | 1571.1 ± 1.8 | – | –
x1 = 0.0397 | 1026.98 ± 3.2 | 1025.23 ± 3.2 | 1586.2 ± 1.8 | 1591.7 ± 1.8 | – | –
x1 = 0.049 | 1032.59 ± 3.2 | 1030.67 ± 3.2 | – | – | 2.119 ± 0.3 | 1.717 ± 0.24
x1 = 0.0502 | 1033.24 ± 3.2 | 1031.33 ± 3.2 | 1607.7 ± 1.8 | 1611.3 ± 1.8 | – | –
x1 = 0.0591 | 1038.24 ± 3.2 | 1036.19 ± 3.2 | 1624 ± 1.8 | 1626.1 ± 1.8 | – | –
x1 = 0.0703 | 1044.16 ± 3.3 | 1041.95 ± 3.3 | 1642.5 ± 1.8 | 1643 ± 1.8 | – | –
x1 = 0.0796 | 1048.67 ± 3.3 | 1046.34 ± 3.3 | 1655.5 ± 1.8 | 1654.7 ± 1.8 | – | –
x1 = 0.0897 | 1053.15 ± 3.3 | 1050.7 ± 3.3 | 1667.9 ± 1.8 | 1665.9 ± 1.8 | – | –
x1 = 0.0992 | 1057.14 ± 3.3 | 1054.62 ± 3.3 | – | – | 3.602 ± 0.5 | 2.877 ± 0.4
x1 = 0.1004 | 1057.71 ± 3.3 | 1055.14 ± 3.3 | 1679.7 ± 1.8 | 1676.5 ± 1.8 | – | –
x1 = 0.149 | 1074.04 ± 3.3 | 1071.09 ± 3.3 | – | – | 5.458 ± 0.76 | 4.314 ± 0.6
x1 = 0.1507 | 1074.47 ± 3.3 | 1071.48 ± 3.3 | 1713 ± 1.8 | 1705.9 ± 1.8 | – | –
x1 = 0.1996 | 1085.68 ± 3.3 | 1082.45 ± 3.3 | 1723.9 ± 1.8 | 1714.7 ± 1.8 | – | –
x1 = 0.1998 | 1085.89 ± 3.3 | 1082.66 ± 3.3 | – | – | 7.66 ± 1.1 | 6.022 ± 0.84
x1 = 0.2467 | 1093.59 ± 3.3 | 1090.21 ± 3.3 | 1723 ± 1.8 | 1712.6 ± 1.8 | – | –
x1 = 0.249 | 1093.81 ± 3.3 | 1090.4 ± 3.3 | – | – | 10.04 ± 1.4 | 7.847 ± 1.1
x1 = 0.2943 | 1098.86 ± 3.3 | 1095.38 ± 3.3 | 1716.6 ± 1.8 | 1705.5 ± 1.8 | – | –
x1 = 0.2987 | 1099.44 ± 3.3 | 1095.93 ± 3.3 | – | – | 12.55 ± 1.8 | 9.772 ± 1.4
x1 = 0.3501 | 1103.6 ± 3.3 | 1100.05 ± 3.3 | – | – | 15.18 ± 2.1 | 11.79 ± 1.7
x1 = 0.3511 | 1103.73 ± 3.3 | 1100.19 ± 3.3 | 1705.1 ± 1.9 | 1693.5 ± 1.9 | – | –
x1 = 0.3995 | 1106.65 ± 3.3 | 1103.05 ± 3.3 | 1694 ± 1.9 | 1682.2 ± 1.9 | – | –
x1 = 0.4007 | 1106.63 ± 3.3 | 1103.05 ± 3.3 | – | – | 17.72 ± 2.5 | 13.74 ± 1.9
x1 = 0.4504 | 1108.9 ± 3.3 | 1105.32 ± 3.3 | – | – | 20.13 ± 2.8 | 15.59 ± 2.2
x1 = 0.4527 | 1109.08 ± 3.3 | 1105.5 ± 3.3 | 1681.7 ± 1.9 | 1669.8 ± 1.9 | – | –
x1 = 0.4973 | 1110.6 ± 3.3 | 1107.02 ± 3.3 | – | – | 22.3 ± 3.1 | 17.24 ± 2.4
x1 = 0.5008 | 1110.76 ± 3.3 | 1107.17 ± 3.3 | 1670.7 ± 1.9 | 1658.7 ± 1.9 | – | –
x1 = 0.5449 | 1111.95 ± 3.3 | 1108.36 ± 3.3 | 1661.5 ± 1.9 | 1649.4 ± 1.9 | – | –
x1 = 0.553 | 1112.18 ± 3.3 | 1108.61 ± 3.3 | – | – | 24.68 ± 3.5 | 19.07 ± 2.7
x1 = 0.5834 | 1112.81 ± 3.3 | 1109.23 ± 3.3 | 1653.4 ± 1.9 | 1641.4 ± 1.9 | – | –
x1 = 0.5938 | 1113.09 ± 3.3 | 1109.52 ± 3.3 | – | – | 26.23 ± 3.7 | 20.23 ± 2.8
x1 = 0.6482 | 1113.95 ± 3.3 | 1110.37 ± 3.3 | 1640.7 ± 1.9 | 1628.7 ± 1.9 | – | –
x1 = 0.6514 | 1114.07 ± 3.3 | 1110.49 ± 3.3 | – | – | 28.3 ± 4 | 21.86 ± 3.1
x1 = 0.6864 | 1114.52 ± 3.3 | 1110.94 ± 3.3 | – | – | 29.45 ± 4.1 | 22.7 ± 3.2
x1 = 0.6982 | 1114.6 ± 3.3 | 1111.02 ± 3.3 | 1632.2 ± 1.9 | 1620.2 ± 1.9 | – | –
x1 = 0.7444 | 1115.11 ± 3.3 | 1111.54 ± 3.3 | 1624.4 ± 1.9 | 1612.5 ± 1.9 | – | –
x1 = 0.7556 | 1115.19 ± 3.3 | 1111.61 ± 3.3 | – | – | 31.37 ± 4.4 | 24.17 ± 3.4
x1 = 0.7962 | 1115.57 ± 3.3 | 1112.01 ± 3.3 | 1616.7 ± 2 | 1604.8 ± 2 | – | –
x1 = 0.7999 | 1115.52 ± 3.3 | 1111.95 ± 3.3 | – | – | 32.41 ± 4.5 | 24.94 ± 3.5
x1 = 0.8401 | 1115.89 ± 3.3 | 1112.33 ± 3.3 | 1610.4 ± 2 | 1598.5 ± 2 | – | –
x1 = 0.8525 | 1115.89 ± 3.3 | 1112.33 ± 3.3 | – | – | 33.47 ± 4.7 | 25.8 ± 3.6
x1 = 0.8947 | 1116.23 ± 3.3 | 1112.67 ± 3.3 | 1603.3 ± 2 | 1591.5 ± 2 | – | –
x1 = 0.9002 | 1116.23 ± 3.3 | 1112.68 ± 3.3 | – | – | 34.4 ± 4.8 | 26.49 ± 3.7
x1 = 0.9092 | 1116.32 ± 3.3 | 1112.76 ± 3.3 | 1601.5 ± 2 | 1589.6 ± 2 | – | –
x1 = 0.919 | 1116.37 ± 3.3 | 1112.81 ± 3.3 | 1600.2 ± 2 | 1588.4 ± 2 | – | –
x1 = 0.9303 | 1116.39 ± 3.3 | 1112.85 ± 3.3 | 1599.1 ± 2 | 1587.2 ± 2 | – | –
x1 = 0.9393 | 1116.4 ± 3.3 | 1112.85 ± 3.3 | 1598 ± 2 | 1586.2 ± 2 | – | –
x1 = 0.9473 | 1116.5 ± 3.3 | 1112.94 ± 3.3 | 1597.2 ± 2 | 1585.3 ± 2 | – | –
x1 = 0.9554 | 1116.57 ± 3.3 | 1113.02 ± 3.3 | – | – | 35.26 ± 4.9 | 27.15 ± 3.8
x1 = 0.9566 | 1116.55 ± 3.3 | 1112.99 ± 3.3 | 1596 ± 2 | 1584.1 ± 2 | – | –
x1 = 0.9694 | 1116.6 ± 3.3 | 1113.04 ± 3.3 | 1594.6 ± 2 | 1582.7 ± 2 | – | –
x1 = 0.9801 | 1116.65 ± 3.3 | 1113.09 ± 3.3 | 1593.4 ± 2 | 1581.5 ± 2 | – | –
x1 = 0.9915 | 1116.69 ± 3.2 | 1113.13 ± 3.2 | 1592.1 ± 2 | 1580.3 ± 2 | – | –
x1 = 1 | 1116.73 ± 3 | 1113.17 ± 3 | 1591 ± 2 | 1579.1 ± 2 | 35.89 ± 5 | 27.67 ± 3.9
